From patent US10538487B2, “Sulfonylureas and related compounds and use of same” (priority 2015, dated 2020)
Values joined by “and” are separate entries in the source; they are usually repeats but may differ in a detail not shown here. Equal entries are not always repeated. Where two headings read alike, the source gives them in different places.

Assay: Single dose pharmacokinetic study in mice (iv 4 mg/Kg, po 20 mg/Kg), plasma concentration post-dosing
Format: in vivo, mouse
Details: mouse
Procedure: This is advantageous leading to comparatively lower doses or less frequent administration. The procedure followed was: Male C57BL/6 mice were used at 7-9 weeks age with 3 animals per group. Mice were dosed with test compound using single intravenous bolus or oral gavage. Blood samples were taken via submandibular or saphenous vein for analysis of plasma concentrations of compound by LC-MS/MS at the following timepoints: IV (3 mice): 0.083, 0.25, 0.5, 1, 2, 4, 8 and 24 hours post dosing, PO (3 mice): 0.25, 0.5, 1, 2, 4, 8 and 24 hours post dosing. LC-MS/MS method for the quantitative determination of test compound in corresponding biological matrix was developed. […] The results are shown graphically in FIGS. 1A to 1C (MCC950) and FIGS. 2A to 2C (MCC7840).

[1] = IV 4 mg/Kg, individual mice M1-M3, 4 mg/kg
[2] = PO 20 mg/Kg, individual mice M4-M6, 20 mg/kg

Compound: CC(C)(O)c1coc(S(=O)(=O)NC(=O)Nc2c3c(cc4c2CCC4)CCC3)c1 [MCC_000950_016, N-((1,2,3,5,6,7-hexahydro-s-indacen-4-yl)carbamoyl)-4-(2-hydroxypropan-2-yl)furan-2-sulfonamide, reference compound]
- AUC0-inf (male, C57BL/6, mouse, plasma, po, 20 mg/kg, PO 20 mg/Kg, mean of 3 mice, read-out: AUC0-inf, Mean PO): 126 µg·h/mL
- AUC(0-t) (male, C57BL/6, mouse, plasma, po, 20 mg/kg, PO 20 mg/Kg, mean of 3 mice, read-out: AUC0-last, Mean PO): 125 µg·h/mL
- Cmax (male, C57BL/6, mouse, plasma, po, 20 mg/kg, PO 20 mg/Kg, mean of 3 mice, read-out: Cmax, Mean PO): 35000 ng/mL
- MRT inf (male, C57BL/6, mouse, plasma, po, 20 mg/kg, PO 20 mg/Kg, mean of 3 mice, read-out: MRT0-inf, Mean PO): 3.63 h
- MRT last (male, C57BL/6, mouse, plasma, po, 20 mg/kg, PO 20 mg/Kg, mean of 3 mice, read-out: MRT0-last, Mean PO): 3.6 h
- half-life (male, C57BL/6, mouse, plasma, po, 20 mg/kg, PO 20 mg/Kg, mean of 3 mice, read-out: T1/2, Mean PO (converted)): 2.39 h
- Tmax (male, C57BL/6, mouse, plasma, po, 20 mg/kg, PO 20 mg/Kg, mean of 3 mice, read-out: Tmax, Mean PO): 0.333 h
- Plasma concentration, IV Time 5 min (IV 4 mg/Kg, 5 min post dosing, individual mice M1-M3, 4 mg/kg): 17200 ng/mL and 17700 ng/mL
- Plasma concentration, IV Time 0.250 h (IV 4 mg/Kg, 0.250 h post dosing, individual mice M1-M3, 4 mg/kg): 10200 ng/mL and 12700 ng/mL
- Plasma concentration, IV Time 0.500 h (IV 4 mg/Kg, 0.500 h post dosing, individual mice M1-M3, 4 mg/kg): 9420 ng/mL and 10500 ng/mL
- Plasma concentration, IV Time 1.00 h (IV 4 mg/Kg, 1.00 h post dosing, individual mice M1-M3, 4 mg/kg): 7730 ng/mL and 8230 ng/mL
- Plasma concentration, IV Time 2.00 h (IV 4 mg/Kg, 2.00 h post dosing, individual mice M1-M3, 4 mg/kg): 6000 ng/mL and 5010 ng/mL
- Plasma concentration, IV Time 4.00 h (IV 4 mg/Kg, 4.00 h post dosing, individual mice M1-M3, 4 mg/kg): 2390 ng/mL and 2130 ng/mL
- Plasma concentration, IV Time 8.00 h (IV 4 mg/Kg, 8.00 h post dosing, individual mice M1-M3, 4 mg/kg): 843 ng/mL and 480 ng/mL
- Plasma concentration, IV Time 24.0 h (IV 4 mg/Kg, 24.0 h post dosing, individual mice M1-M3, 4 mg/kg): 2.33 ng/mL
- Tlast (IV 4 mg/Kg, individual mice M1-M3): 24.0 h
- AUC0-inf [1]: 33.496 µg·h/mL and 30.758 µg·h/mL
- AUC0-last [1]: 33.489 µg·h/mL and 30.751 µg·h/mL
- AUCExtra [1]: 0.0226% and 0.0198% and 0.0224%
- AUMCExtra [1]: 0.219% and 0.187% and 0.251%
- C0 [1]: 22332 ng/mL and 20894 ng/mL
- Cl [1]: 1.99 mL/min/kg and 2.17 mL/min/kg
- MRT0-inf [1]: 2.84 h and 2.41 h
- MRT0-last [1]: 2.83 h and 2.40 h
- T1/2 [1]: 1.97 h and 2.05 h
- Vdss [1]: 0.339 L/kg and 0.313 L/kg
- AUCExtra, Mean IV (IV 4 mg/Kg, mean of 3 mice): 0.0216%
- AUMCExtra, Mean IV (IV 4 mg/Kg, mean of 3 mice): 0.219%
- C0, Mean IV (IV 4 mg/Kg, mean of 3 mice): 21974 ng/mL
- Tlast, Mean IV (IV 4 mg/Kg, mean of 3 mice): 24.0 h
- bioavailability (PO 20 mg/Kg vs IV 4 mg/Kg, Mean PO): 71.0%
- Plasma concentration, PO Time 0.250 h (PO 20 mg/Kg, 0.250 h post dosing, individual mice M4-M6, 20 mg/kg): 21900 ng/mL and 29000 ng/mL and 48900 ng/mL
- Plasma concentration, PO Time 0.500 h (PO 20 mg/Kg, 0.500 h post dosing, individual mice M4-M6, 20 mg/kg): 34100 ng/mL and 35800 ng/mL
- Plasma concentration, PO Time 1.00 h (PO 20 mg/Kg, 1.00 h post dosing, individual mice M4-M6, 20 mg/kg): 33700 ng/mL and 37000 ng/mL
- Plasma concentration, PO Time 2.00 h (PO 20 mg/Kg, 2.00 h post dosing, individual mice M4-M6, 20 mg/kg): 22500 ng/mL and 26200 ng/mL
- Plasma concentration, PO Time 4.00 h (PO 20 mg/Kg, 4.00 h post dosing, individual mice M4-M6, 20 mg/kg): 13000 ng/mL and 10500 ng/mL
- Plasma concentration, PO Time 8.00 h (PO 20 mg/Kg, 8.00 h post dosing, individual mice M4-M6, 20 mg/kg): 2360 ng/mL and 4670 ng/mL
- Plasma concentration, PO Time 24.0 h (PO 20 mg/Kg, 24.0 h post dosing, individual mice M4-M6, 20 mg/kg): 60.7 ng/mL and 17.4 ng/mL and 39.3 ng/mL
- Tlast (PO 20 mg/Kg, individual mice M4-M6): 24.0 h
- AUC0-inf [2]: 123.452 µg·h/mL and 144.868 µg·h/mL
- AUC0-last [2]: 123.399 µg·h/mL and 144.734 µg·h/mL
- AUCExtra [2]: 0.216% and 0.0429% and 0.0929%
- AUMCExtra [2]: 1.40% and 0.376% and 0.730%
- Cmax [2]: 21900 ng/mL and 34100 ng/mL and 48900 ng/mL
- MRT0-last [2]: 3.07 h and 3.47 h
- T1/2 [2]: 2.11 h and 2.37 h
- Tmax [2]: 0.500 h
- AUCExtra, Mean PO (PO 20 mg/Kg, mean of 3 mice): 0.117%
- AUMCExtra, Mean PO (PO 20 mg/Kg, mean of 3 mice): 0.835%
- Tlast, Mean PO (PO 20 mg/Kg, mean of 3 mice): 24.0 h
